Values of other authors as cited in patent US8545882B2, “Control release formulation containing a hydrophobic material as the sustained release agent” (Nostrum Pharmaceuticals, Inc., priority 2001, dated 2013).
Read-outs that look alike come from different tables or passages of the source. Blank lines part the entries; values can stand above or below the molecule they belong to.

Assays:
[1] = water
[2] = granules 200-315 microns, any of three polymers at 10 or 20% by weight
[3] = 40% by weight glycerol palmitostearate, wet granulation, after 20 minutes

theophylline released ([1]; 2% (w/w) wax coating, within one hour): 85%
theophylline released ([1]; 6% wax coating, in 5 minutes): 35%
theophylline released ([1]; 6% wax coating, within the first hour): 55%
theophylline released ([1]; 10% (w/w) wax coating, in 5 minutes): 28%
theophylline released ([1]; 10% (w/w) wax coating, within the first hour): 38%
Structure (SMILES): Cn1c(=O)c2[nH]cnc2n(C)c1=O [theophylline]

time in which the drug was released completely [2]: ≤ 30 min
Structure (SMILES): CC(C)Cc1ccc(C(C)C(=O)O)cc1 (stereo not shown) [ibuprofen]

Structure (SMILES): O=C([O-])c1ccccc1O.[Na+] [sodium salicylate]
drug released in water [3]: 50%
